What was measured:
[1] = Serum pharmacokinetics and tumor/organ distribution (Pt by ICP-MS) in CT26-bearing Balb/c mice; format: in vivo; conditions: single i.v. dose equimolar to 20 mg/kg picoplatin
Description: CT-26 cells (5 × 10^5 cells in 50 μL of serum-free medium) were subcutaneously injected into the right flank of male Balb/c mice. […]. […] and the three maleimide-containing platinum(IV) complexes were dissolved in 30% PEG400-containing 0.9% NaCl and PBS (Cytiva, USA), respectively. […]. After a 10 min clotting period of the blood at RT, the serum was separated by centrifugation (900 g, 10 min, repeated twice). Tumor and organ accumulation of the drug was assessed at 5 and 24 h postadministration (2 animals per time point). Mice were euthanized via cervical dislocation, and their tumors and organs were excised. All collected samples were stored at −20 °C until further processing for Pt concentration analysis by ICP-MS. […] Approximately 15–30 mg of tissue (gravimetrically measured) was digested with 2 mL of 20% nitric acid and 100 μL of H2O2 in an open-vessel graphite digestion system (Labter, ODLAB; AHF Analysentechnik AG, Germany), using PFA vials and lids. […] Quantification of total Pt content was performed on a quadrupole-based ICP-MS instrument (Agilent 7800, Agilent Technologies, Tokyo, Japan), equipped with an Agilent SPS 4 autosampler and a MicroMist nebulizer. […] Rh was used as the internal standard for Pt quantification. […]

[2] = tested on: CT26 tumors; test: Anticancer activity in vivo, CT26-bearing Balb/c mice; conditions: i.v. on days 3 and 10, dose equimolar to 20 mg/kg picoplatin
Description: Ten-week-old Balb/c mice were purchased from Envigo Laboratories (San Pietro al Natisone, Italy). […] Animals were controlled for distress development every day, and tumor size was assessed regularly by caliper measurement. Tumor volume was calculated using the formula: (length × width^2)/2.
CT26 cells (5 × 10^5 in serum-free medium) were injected subcutaneously into the right flank of male Balb/c mice. Therapy was started when tumor nodules were palpable (day 3). […] Mice were sacrificed by cervical dislocation in the case of a tumor length >20 mm, tumor ulceration, or other signs for distress.

CC(=O)[O][Pt]([Cl])([Cl])[O]C(=O)NCCN1C(=O)C=CC1=O.Cc1ccccn1.N [Pico-Mal]
platinum levels in the kidneys [1]: higher
impact on tumor growth [2]: inactive

— article PMC11815855, “Exploring the Structure–Activity Relationships of Albumin-Targeted Picoplatin-Based Platinum(IV) Prodrugs” (Inorganic Chemistry, 2025)
